Measured values: PMC3471809 (Bioorganic & medicinal chemistry, 2012)
Converted amounts (≈) assume the structure as drawn. Where two headings read alike, the source gives them in different places.

Key:
S. aureus PlsY (SaPlsY) [1] = biological target: T1, S. aureus PlsY (SaPlsY) (Staphylococcus aureus, UniProt P67164); experiment: biochemical; type: E. coli FB23281 (delta plsY) membranes
T1 sequence (P67164 1-202): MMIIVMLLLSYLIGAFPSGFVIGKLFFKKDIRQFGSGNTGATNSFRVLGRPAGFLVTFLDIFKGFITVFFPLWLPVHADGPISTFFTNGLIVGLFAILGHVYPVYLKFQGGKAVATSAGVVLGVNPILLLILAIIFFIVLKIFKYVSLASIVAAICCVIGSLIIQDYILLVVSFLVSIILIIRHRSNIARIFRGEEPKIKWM

S. pneumoniae R6 = experiment: microbe, parasite or virus in culture; settings: Streptococcus pneumoniae, R6, read-out: MIC
S. aureus PlsY (SaPlsY) [2] = biological target: T1, S. aureus PlsY (SaPlsY); experiment: biochemical; type: E. coli FB23281 (delta plsY) membranes; remark: listed apart in the source

SMILES	MIC (S. pneumoniae R6) [µg/mL]	further results
CCCCCCCCCCCCCCCC(=O)NS(=O)(=O)OC1CCNCC1 [compound 6]	–	IC50 (S. aureus PlsY (SaPlsY) [1]): > 100 µM
CCCCCCCCCCCCCCCC(=O)NS(=O)(=O)Oc1ccc(CC(=O)OC)cc1 [compound 14, Methyl 2-(4-(N-palmitoylsulfamoyloxy)phenyl)acetate]	100 (≈ 207 µM)	–
CCCCCCCCCCCCCCCC(=O)NS(=O)(=O)Oc1ccc(C(=O)OCC)cc1 [compound 15, Ethyl 4-(N-palmitoylsulfamoyloxy)benzoate]	200 (≈ 414 µM)	–
CCCCCCCCCCCCCCCC(=O)NS(=O)(=O)Oc1ccc(CCN)cc1 [compound 16]	–	IC50 (S. aureus PlsY (SaPlsY) [2]): > 100 µM
CCCCCCCCCCCCCCCC(=O)NS(=O)(=O)Oc1ccc(-c2ccc([N+](=O)[O-])cc2)cc1 [compound 18, 4'-nitrobiphenyl-4-yl palmitoylsulfamate]	100 (≈ 188 µM)	–
CCCCCCCCCCCCCCCC(=O)NS(=O)(=O)Oc1ccc2c(c1)OCO2 [compound 19, Benzo[d][1,3]dioxol-5-yl palmitoylsulfamate]	200 (≈ 439 µM)	–
CCCCCCCCCCCCCCCC(=O)NS(=O)(=O)Oc1ccc2ncccc2c1 [compound 20, Quinolin-6-yl palmitoylsulfamate]	> 200	–
CCCCCCCCCCCCCCCC(=O)NS(=O)(=O)Oc1ccc2c(OS(N)(=O)=O)coc2c1 [compound 21]	> 200	–
